In article PMC10629583, “Specific inhibition of an anticancer target, polo-like kinase 1, by allosterically dismantling its mechanism of substrate recognition” (Proceedings of the National Academy of Sciences of the …, 2023):

How the values were obtained:
PBD1 F559R mutant = biological target: T1, PBD1 F559R mutant (Homo sapiens, UniProt P53350, F559R); experiment: FP-based binding/inhibition assay, PBD1 F559R; conditions: PBD1 F559R, 2 µM protein
T1 construct: constructs expressing PBD1 (residues 345–603) WT (pKM7650); His; TEV site (N); made in house; host or cells: bacteria (E. coli)
T1 sequence (P53350 345-603 F559R): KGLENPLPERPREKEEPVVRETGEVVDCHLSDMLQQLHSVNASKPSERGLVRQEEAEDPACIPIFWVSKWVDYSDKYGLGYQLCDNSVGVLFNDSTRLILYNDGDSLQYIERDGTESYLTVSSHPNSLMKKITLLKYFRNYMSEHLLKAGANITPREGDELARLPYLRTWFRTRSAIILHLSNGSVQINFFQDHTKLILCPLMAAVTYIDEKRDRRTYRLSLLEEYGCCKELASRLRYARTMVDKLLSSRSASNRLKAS
Experimental: FP assays were carried out essentially as described previously ([35], [36]). FITC-conjugated ligands (15 nM) were mixed with PBDs at their EC85 concentrations. All the samples were analyzed approximately 30 min after reaction in a 384-well format using the SpectraMax Paradigm multimode microplate detection platform (Molecular Devices). Data were analyzed after carrying out at least three independent experiments using GraphPad Prism software version 8.
Fig. S4. Generation of F559 mutants for in vitro and cell-based assays in Fig. 4. (A) SDS-PAGE showing the proteins used for the FP assays in Fig. 4 A and B. CBB, a Coomassie Brilliant Blue– stained gel. (B) Summary of Kd and EC85 values for PBD1 WT and mutants. The Kd values for PBD1 WT and mutants were determined after extrapolating them from the binding curves as the concentration at which 50% of the FITC-Ahx-DPPLHSpTAI-NH2 are PBD1-bound. The EC85 values indicate the effective concentration of 85% of the maximal concentration calculated for each protein. The FP values were obtained 30 minutes after incubation. For the F559K and F559R mutants, we were not able to determine the EC85 values and therefore used 2 µM of these proteins for the assays in Fig. 4B. N.D., not determined. […]

[1] = system: Flag-Plk1 interactions with p-PBIP1, Bub1, BubR1, Cdc25C; experiment: Coimmunoprecipitation, HeLa cells expressing Flag-Plk1; assay type: cell-based; conditions: 20 μM for 2 h, nocodazole + okadaic acid
Experimental: For coimmunoprecipitation analyses shown in Figs. 1C and 4F, HeLa cells stably expressing PCMV-Flag-Plk1 WT (pKM3863) (Fig. 1C) and its respective F559D mutant (pKM7979) (Fig. 4F) were generated using a lentiviral expression system. Prior to harvest, the cells were treated with 600 nM of nocodazole and 300 nM of okadaic acid (OA) for 16 h and 1.5 h, respectively, to enrich the level of phosphorylated proteins and additionally treated with either control DMSO or 20 μM of Allopole for 2 h. Immunoprecipitation was carried out essentially as described previously ([49]) in TBSN buffer [20 mM Tris–Cl (pH 8.0), 150 mM NaCl, 0.5% NP-40, 5 mM EGTA, 2 mM MgCl2, 1.5 mM EDTA, 2 mM DTT, 20 mM p-nitrophenyl phosphate (PNPP), and protease inhibitor cocktail (Roche)] using anti-Flag antibody (Sigma-Aldrich). Immunoprecipitates were separated by sodium dodecyl sulfate–polyacrylamide gel electrophoresis (SDS-PAGE) and then immunoblotted according to standard procedures using an enhanced chemiluminescence detection system (Thermo Fisher Scientific). The antibodies that were used to detect specific indicated proteins in Fig. 1C are listed in SI Appendix, Table S6.

[2] = system: U2OS cells expressing Pendo-mGFP-Plk1 WT; experiment: MTS proliferation assay, U2OS Plk1 RNAi cells expressing WT Plk1; assay type: cell-based; conditions: WT Plk1, 3 to 6 μM, 36 h
Experimental: Cell viability was determined using the […] CellTiter 96® AQueous One Solution Cell Proliferation Assay (MTS) kit (Promega) containing a tetrazolium compound [3-(4,5-dimethylthiazol-2-yl)-5-(3-carboxymethoxy-phenyl)-2-(4-sulfophenyl)-2H-tetrazolium, inner salt (MTS)] and an electron-coupling phenazine ethosulfate. For the MTS assays in Fig. 1B, L363 cells cultured in a 96-well plate were treated with the indicated compounds for 48 h (the final volume of 100 μL). After the compound treatment, cells were additionally treated with 20 μL of the MTS solution and incubated at 37 °C for 2 to 4 h in a humidified 5% CO2 atmosphere. The absorbance of the resulting sample was measured at 490 nm using a PerkinElmer EnSpire Multimode 96-well plate reader. For the MTS assays in Fig. 4E, U2OS cells stably expressing either Pendo-mGFP-Plk1 WT or F559D were seeded at approximately 5,000 cells/well in a 96-well plate, depleted of endogenous Plk1 by RNAi, and then treated with either control DMSO or Allopole as indicated in the schematic diagram in SI Appendix, Fig. S4E.

Row | Structure (SMILES) | Inhibition of FITC-phosphopeptide binding (in words) (PBD1 F559R mutant) | Phosphoproteins coprecipitating with Flag-Plk1 (in words) [1] | Proliferation rate (in words) [2]
1 | O=c1c2sc(Cl)cc2n2c(=S)[nH]nc2n1CC1CC1 [Allopole-A] | failed to inhibit | – | –
2 | Cn1cnc([N+](=O)[O-])c1Sc1nnc2n(CC3CC3)c(=O)c3sc(Cl)cc3n12 [Allopole] | – | greatly diminished the amounts of these proteins coprecipitating with Plk1 | significant reduction in their proliferation rate
